According to US20140090094A1, “MODULATORS OF SLC22A7” (BAYER INTELLECTUAL PROPERTY GmbH, priority 2011, published 2014):

T1: OAT2r (Rattus norvegicus, UniProt Q5RLM2)
T1 construct: expressed in transfected cells
T1 sequence (Q5RLM2 1-535): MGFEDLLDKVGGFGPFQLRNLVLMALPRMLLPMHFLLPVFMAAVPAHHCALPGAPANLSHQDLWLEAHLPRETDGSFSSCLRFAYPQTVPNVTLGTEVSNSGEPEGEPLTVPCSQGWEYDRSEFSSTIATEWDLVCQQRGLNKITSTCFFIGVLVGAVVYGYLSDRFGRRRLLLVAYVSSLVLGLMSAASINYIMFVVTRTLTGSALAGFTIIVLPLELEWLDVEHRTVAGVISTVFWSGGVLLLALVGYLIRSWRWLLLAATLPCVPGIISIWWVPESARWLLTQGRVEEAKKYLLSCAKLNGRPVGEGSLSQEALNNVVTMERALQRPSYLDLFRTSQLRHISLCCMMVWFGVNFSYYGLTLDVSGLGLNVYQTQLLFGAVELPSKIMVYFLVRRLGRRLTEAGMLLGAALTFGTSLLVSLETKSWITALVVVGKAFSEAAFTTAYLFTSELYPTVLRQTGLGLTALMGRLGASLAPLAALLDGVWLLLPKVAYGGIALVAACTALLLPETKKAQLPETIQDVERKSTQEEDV

T2: OAT2h (Homo sapiens, UniProt Q9Y694)
T2 construct: expressed in transfected cells; host or cells: 293 cells (HEK-293), pEBTetD/OAT2h, doxycycline-inducible
T2 sequence (Q9Y694 1-546 isoform Q9Y694-2): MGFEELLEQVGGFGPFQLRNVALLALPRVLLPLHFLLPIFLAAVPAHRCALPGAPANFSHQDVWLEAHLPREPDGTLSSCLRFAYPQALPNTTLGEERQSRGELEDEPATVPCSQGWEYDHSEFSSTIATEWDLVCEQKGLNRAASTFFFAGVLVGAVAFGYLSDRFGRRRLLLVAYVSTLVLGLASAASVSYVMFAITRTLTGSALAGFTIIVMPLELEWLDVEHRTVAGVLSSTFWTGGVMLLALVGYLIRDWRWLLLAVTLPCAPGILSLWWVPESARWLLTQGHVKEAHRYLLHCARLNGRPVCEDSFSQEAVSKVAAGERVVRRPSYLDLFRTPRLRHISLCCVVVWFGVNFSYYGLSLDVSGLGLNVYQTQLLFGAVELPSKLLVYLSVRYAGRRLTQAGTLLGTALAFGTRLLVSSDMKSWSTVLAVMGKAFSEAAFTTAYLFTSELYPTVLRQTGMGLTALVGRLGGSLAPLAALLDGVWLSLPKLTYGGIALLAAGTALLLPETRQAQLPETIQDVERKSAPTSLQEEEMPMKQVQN


Columns and labels:
OAT2r [1] = target: T1, OAT2r; assay: 1 min uptake into 293 cells expressing OAT2 from rat; format: cell-based; conditions: 1 min uptake, 0.1 μmol/l radiotracer or 10 μmol/l unlabeled compound;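 further: uptake at 37 °C, read by liquid scintillation counting or LC-ESI-MS/MS, carrier-mediated part as induced-minus-uninduced expression difference corrected for baseline content, protein by BCA assay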
Description: (§1) Cells were used for uptake experiments at a confluence of at least 70%. Uptake was measured at 37° C. […] After preincubation for at least 20 minutes in 4 ml of uptake buffer, the buffer was replaced with 2 ml of substrate in uptake buffer. The total substrate concentration if not indicated otherwise was 0.1 μmol/l for radiotracer assays and 10 μmol/l for unlabeled compounds. Incubation was stopped after 1 min by rinsing the cells four times each with 4 ml ice-cold uptake buffer. Radioactivity was determined, after cell lysis with 0.1% v/v Triton X-100 in 5 mmol/l TRIS-HCl pH 7.4, by liquid scintillation counting. For LCelectrospray ionization-MS/MS analysis, cells were lysed with methanol and stored at −20° C.
(§2) After centrifugation (1 min, 16000×g, 20° C.) of thawed lysates, 100 μl of the supernatant was mixed with either 10 μl unlabeled MPP+ iodide (0.5 ng/μl) or biphenyl-4-carboxylic acid (Sigma-Aldrich) as internal standard. […] Atmospheric pressure ionization with positive or negative electrospray was used. For quantification (scan time 150 ms), the optimal collision energy for argon-induced fragmentation in the second quadrupole was determined for each analyte. […] Linear calibration curves were constructed from at least six standards which were prepared using control cell lysates as solvent. Sample analyte content was calculated from the analyte response ratio and the slope of the calibration curve, obtained by linear regression. With LC-MS quantitation, solute content of cell lysates was determined for 4 conditions (paired dishes, incubation time 1 min): a) transporter expression on, uptake buffer; b) expression off, uptake buffer; c) expression on, substrate in uptake buffer; d) expression off, substrate in uptake buffer. Acute uptake mediated by heterologously expressed carrier was then calculated as (c−a)−(d−b). This approach takes into account endogenous solute content and non-specific uptake. Protein was measured by the BCA assay (Pierce) with bovine serum albumin as standard. The protein content of MS samples was estimated from 3 matched cell dishes.

OAT2r [2] = target: T1, OAT2r; assay: trans-stimulation of efflux of 3H-orotic acid via OAT2r; format: cell-based; conditions: 1 mmol/l compound in uptake buffer, 1 min, preloaded cells
OAT2r [3] = target: T1, OAT2r; assay: 24 h accumulation in lysates of OAT2r-expressing versus control cells (LC-MS/MS); format: cell-based; conditions: for increase in OAT2r cell lysates versus control cells (factor f): 24 h incubation, compound at 100 μmol/l
Description: A substrate search by LC-MS difference shading was performed with 293 cells stably transfected to express OAT2 from rat. […] To verify that trigonelline is directly transported by OAT2 and not just increased indirectly, initial rates of uptake (1 min, 37° C.) of trigonelline (10 μmol/l) were determined by LC-MS/MS.
With trigonelline as substrate lead, compounds wholly or partly related in structure were analyzed for transport by OAT2 from rat.
After centrifugation (1 min, 16000×g, 20° C.) of thawed lysates, 100 μl of the supernatant was mixed with either 10 μl unlabeled MPP+ iodide (0.5 ng/μl) or biphenyl-4-carboxylic acid (Sigma-Aldrich) as internal standard. Of this mixture, […] were analyzed by LCMS/MS on a triple quadrupole mass spectrometer (4000 Q TRAP, Applied Biosystems, Darmstadt, Germany). […] Atmospheric pressure ionization with positive or negative electrospray was used. For quantification (scan time 150 ms), the optimal collision energy for argon-induced fragmentation in the second quadrupole was determined for each analyte. […] Linear calibration curves were constructed from at least six standards which were prepared using control cell lysates as solvent. Sample analyte content was calculated from the analyte response ratio and the slope of the calibration curve, obtained by linear regression. With LC-MS quantitation, solute content of cell lysates was determined for 4 conditions ([…]): a) transporter expression on, uptake buffer; b) expression off, uptake buffer; c) expression on, substrate in uptake buffer; d) expression off, substrate in uptake buffer. Acute uptake mediated by heterologously expressed carrier was then calculated as (c−a)−(d−b). This approach takes into account endogenous solute content and non-specific uptake. Protein was measured by the BCA assay (Pierce) with bovine serum albumin as standard. The protein content of MS samples was estimated from 3 matched cell dishes.

OAT2h = target: T2, OAT2h; assay: 1 min uptake into 293 cells expressing OAT2 from human; format: cell-based; conditions: radiotracer
Description: as §1, §2

[4] = substrate: O=C(O)c1cc(=O)[nH]c(=O)[nH]1; assay: cells, lysate or membranes; conditions: other: saturation of OAT2r-mediated uptake, 1 min

| Molecule | transport by OAT2r (in words) (OAT2r [1]) | increase in OAT2r cell lysates versus control cells (factor f) (OAT2r [3]) | also measured |
| --- | --- | --- | --- |
| O=C(O)c1ccc[n+]([C@@H]2O[C@H](COP(=O)(O)O)[C@@H](O)[C@H]2O)c1 [nicotinic acid mononucleotide] | no transport |  |  |
| O=C(O)CC(O)C(=O)O (stereo not shown) [malate] |  |  | trans-stimulation of efflux of 3H-orotic acid (in words) (OAT2r [2]): rejects |
| Nc1ccccc1C(=O)O [2-aminobenzoic acid] | no transport | 1.1 |  |
| CC1=NCC[C@@H](C(=O)O)N1 [ectoine] |  | 1.2 |  |
| NC(=O)CC[C@H](N)C(=O)O [3H-glutamine, glutamine] |  |  | uptake by OAT2h (in words) (OAT2h): no uptake |
| O=C1CC[C@@H](C(=O)O)N1 [5-oxoproline] | no transport |  |  |
| NC(=O)c1cccnc1 [nicotinamide] | no transport | no significant increase |  |
| O=C1CC(=O)NC(=O)N1 [barbituric acid] | no transport |  |  |
| Nc1cccc(C(=O)O)c1 [3-aminobenzoic acid] | no transport | 1.4 |  |
| C[N+](C)(C)C[C@H](O)CC(=O)[O-] [L-carnitine] |  | 1.0 |  |
| O=C(O)c1cc(=O)c2ccccc2[nH]1 [kynurenic acid] | no transport |  |  |
| O=C(O)c1cccnc1 [nicotinic acid] | no transport | no significant increase |  |
| Cc1cc2nc3c(=O)[nH]c(=O)nc-3n(C[C@H](O)[C@H](O)[C@H](O)CO)c2cc1C [riboflavin] | no transport | 1.2 |  |
| O=C(O)c1cccnc1C(=O)O [Quinolinic acid] |  | 2.7 | difference in lysate content between OAT2r and control cells (in words) (OAT2r [3]; up to 1 h incubation time): virtually no difference |
| O=C(O)c1[nH]c(=O)[nH]c(=O)c1F [5-fluoroorotic acid] | transported efficiently |  |  |
| C[N+]1(C)CCC[C@H]1C(=O)[O-] [stachydrine] | no transport | 1.2 |  |

| Molecule | transport by OAT2r (in words) (OAT2r [1]) | increase in OAT2r cell lysates versus control cells (factor f) (OAT2r [3]) | also measured |
| --- | --- | --- | --- |
| C[n+]1cccc(C(N)=O)c1 [1-methylnicotinamide] | no transport |  |  |
| Cc1ncc(C[n+]2csc(CCO)c2C)c(N)n1 [thiamine] | no transport |  |  |
| O=C1C[C@@H](C(=O)O)NC(=O)N1 [L-dihydroorotic acid] | no transport |  |  |
| N=C(N)NCC(=O)O [guanidinoacetic acid] | no transport |  |  |
| Nc1ccc(C(=O)O)cc1 [4-aminobenzoic acid] | no transport | 1.1 |  |
| CCN(CC)CCC(=O)O [3-(diethylamino)propionic acid] |  | 1.1 |  |
| CN(CC(=O)O)C(=N)N [creatine] | no transport |  |  |
| C[N+](C)(C)CC(=O)[O-] [glycine betaine] |  | 1.0 |  |
| NCC1(CC(=O)O)CCCCC1 [gabapentin] |  | 1.2 |  |
| O=C(O)[C@@H]1CCCN1 [L-proline] | no transport |  |  |
| O=C(O)c1c[nH]c(=O)[nH]c1=O [isoorotic acid] | transported efficiently |  |  |
| CC(O)C(=O)O (stereo not shown) [lactate] |  |  | trans-stimulation of efflux of 3H-orotic acid (in words) (OAT2r [2]): rejects |
| O=C(O)CC1NC(=O)NC1=O (stereo not shown) [hydantoin-5-acetic acid] | no transport |  |  |
| NCC(=O)CCC(=O)O [5-aminolevulinic acid] | no transport |  |  |
| O=C([O-])c1ccc[n+]([C@@H]2O[C@H](CO)[C@@H](O)[C@H]2O)c1 [nicotinic acid riboside] | transported slightly more efficiently than trigonelline |  |  |
| OAT2r (Rattus norvegicus) (protein) MGFEDLLDKVGGFGPFQLRNLVLMALPRMLLPMHFLLPVFMAAVPAHHCALPGAPANLSHQDLWLEAHLPRETDGSFSSCLRFAYPQTVPNVTLGTEVSNSGEPEGEPLTVPCSQGWEYDRSEFSSTIATEWDLVCQQRGLNKITSTCFFIGVLVGAVVYGYLSDRFGRRRLLLVAYVSSLVLGLMSAASINYIMFVVTRTLTGSALAGFTIIVLPLELEWLDVEHRTVAGVISTVFWSGGVLLLALVGYLIRSWRWLLLAATLPCVPGIISIWWVPESARWLLTQGRVEEAKKYLLSCAKLNGRPVGEGSLSQEALNNVVTMERALQRPSYLDLFRTSQLRHISLCCMMVWFGVNFSYYGLTLDVSGLGLNVYQTQLLFGAVELPSKIMVYFLVRRLGRRLTEAGMLLGAALTFGTSLLVSLETKSWITALVVVGKAFSEAAFTTAYLFTSELYPTVLRQTGLGLTALMGRLGASLAPLAALLDGVWLLLPKVAYGGIALVAACTALLLPETKKAQLPETIQDVERKSTQEEDV |  |  | Km [4]: 200 (95% confidence interval: 160-240) μmol/l |
